Results on 33 molecules are retold here after US12522602B2, “Derivatives having 2,3-dihydro-1H-indene or 2,3-dihydrobenzofuran moiety or pharmaceutically acceptable salt thereof and pharmaceutical compositions comprising the same” (YUHAN CORPORATION, priority 2019, dated 2026).

As a reminder, the IC50 is the concentration at which inhibition is half-maximal. A lower IC50 goes with greater potency.

The test relates to GM1 production in Jurkat cells. Description: cells. It counts as cell-based. The note with it: Homo sapiens, Jurkat, 72 h.
The molecule `COc1ccc(C(C)C)cc1-c1ccc2c(c1)CC(C)(C)C2NC(=O)O[C@@H]1CN2CCC1CC2` (stereo partly drawn) [Example 232, (S)-quinuclidin-3-yl (5-(5-isopropyl-2-methoxyphenyl)-2,2-dimethyl-2,3-dihydro-1H-inden-1-yl)carbamate] registered an IC50 of 12.5 nM. The result for `Cc1ccc(-c2ccc3c(c2)CC(C)(C)C3NC(=O)O[C@@H]2CN3CCC2CC3)c(F)c1` (stereo partly drawn) [Example 233, (S)-quinuclidin-3-yl (5-(2-fluoro-4-methylphenyl)-2,2-dimethyl-2,3-dihydro-1H-inden-1-yl)carbamate] reads 23.3 nM; that for `COc1ccc(F)cc1-c1ccc2c(c1)CC(C)(C)C2NC(=O)O[C@@H]1CN2CCC1CC2` (stereo partly drawn) [Example 234, (S)-quinuclidin-3-yl (5-(5-fluoro-2-methoxyphenyl)-2,2-dimethyl-2,3-dihydro-1H-inden-1-yl)carbamate], 13.6 nM. The result for `Cc1cc(-c2ccc3c(c2)CC(C)(C)C3NC(=O)O[C@@H]2CN3CCC2CC3)co1` (stereo partly drawn) [Example 235, (S)-quinuclidin-3-yl (2,2-dimethyl-5-(5-methylfuran-3-yl)-2,3-dihydro-1H-inden-1-yl)carbamate] reads 6.5 nM; that for `COc1c(F)cccc1-c1ccc2c(c1)CC(C)(C)C2NC(=O)O[C@@H]1CN2CCC1CC2` (stereo partly drawn) [Example 236, (S)-quinuclidin-3-yl (5-(3-fluoro-2-methoxyphenyl)-2,2-dimethyl-2,3-dihydro-1H-inden-1-yl)carbamate], 32.4 nM. `CC1(C)Cc2cc(-c3cccc(F)c3Cl)ccc2C1NC(=O)O[C@@H]1CN2CCC1CC2` (stereo partly drawn) [Example 237, (S)-quinuclidin-3-yl (5-(2-chloro-3-fluorophenyl)-2,2-dimethyl-2,3-dihydro-1H-inden-1-yl)carbamate] came in with an IC50 of 29.2 nM. The result for `CC1(C)Cc2cc(-c3csc4ccccc34)ccc2C1NC(=O)O[C@@H]1CN2CCC1CC2` (stereo partly drawn) [Example 238, (S)-quinuclidin-3-yl (5-(benzo[b]thiophen-3-yl)-2,2-dimethyl-2,3-dihydro-1H-inden-1-yl)carbamate] reads 13.2 nM; that for `CCCOc1cc(F)ccc1-c1ccc2c(c1)CC(C)(C)C2NC(=O)O[C@@H]1CN2CCC1CC2` (stereo partly drawn) [Example 239, (S)-quinuclidin-3-yl (5-(4-fluoro-2-propoxyphenyl)-2,2-dimethyl-2,3-dihydro-1H-inden-1-yl)carbamate], 48.9 nM. The result for `Cc1cc(-c2ccc3c(c2)CC(C)(C)C3NC(=O)O[C@@H]2CN3CCC2CC3)cc(C(C)(C)C)c1` (stereo partly drawn) [Example 240, (S)-quinuclidin-3-yl (5-(3-(tert-butyl)-5-methylphenyl)-2,2-dimethyl-2,3-dihydro-1H-inden-1-yl)carbamate] reads 51.3 nM; that for `CCOc1ccc(Cl)c(-c2ccc3c(c2)CC(C)(C)C3NC(=O)O[C@@H]2CN3CCC2CC3)c1` (stereo partly drawn) [Example 241, (S)-quinuclidin-3-yl (5-(2-chloro-5-ethoxyphenyl)-2,2-dimethyl-2,3-dihydro-1H-inden-1-yl)carbamate], 51.3 nM. Turning to `CC1(C)Cc2cc(-c3ccc(Cl)c(F)c3)ccc2C1NC(=O)O[C@@H]1CN2CCC1CC2` (stereo partly drawn) [Example 242, (S)-quinuclidin-3-yl (5-(4-chloro-3-fluorophenyl)-2,2-dimethyl-2,3-dihydro-1H-inden-1-yl)carbamate], the IC50 turned out to be 64.4 nM. The result for `Cc1cccc(-c2ccc3c(c2)CC(C)(C)C3NC(=O)O[C@@H]2CN3CCC2CC3)c1F` (stereo partly drawn) [Example 243, (S)-quinuclidin-3-yl (5-(2-fluoro-3-methylphenyl)-2,2-dimethyl-2,3-dihydro-1H-inden-1-yl)carbamate] reads 21.4 nM.

Molecule `COc1ccc(C#N)cc1-c1ccc2c(c1)CC(C)(C)C2NC(=O)O[C@@H]1CN2CCC1CC2` (stereo partly drawn) [Example 244, (S)-quinuclidin-3-yl (5-(5-cyano-2-methoxyphenyl)-2,2-dimethyl-2,3-dihydro-1H-inden-1-yl)carbamate] had an IC50 of 38 nM. The result for `CCOc1cc(-c2ccc3c(c2)CC(C)(C)C3NC(=O)O[C@@H]2CN3CCC2CC3)cc(C(F)(F)F)c1` (stereo partly drawn) [Example 245, (S)-quinuclidin-3-yl (5-(3-ethoxy-5-(trifluoromethyl)phenyl)-2,2-dimethyl-2,3-dihydro-1H-inden-1-yl)carbamate] reads 23 nM; that for `CC1(C)Cc2cc(-c3cc(F)cc(C(F)(F)F)c3)ccc2C1NC(=O)O[C@@H]1CN2CCC1CC2` (stereo partly drawn) [Example 246, (S)-quinuclidin-3-yl (5-(3-fluoro-5-(trifluoromethyl)phenyl)-2,2-dimethyl-2,3-dihydro-1H-inden-1-yl)carbamate], 14.7 nM; that for `Cc1cc(-c2ccc3c(c2)CC(C)(C)C3NC(=O)O[C@@H]2CN3CCC2CC3)ccc1OC(F)(F)F` (stereo partly drawn) [Example 247, (S)-quinuclidin-3-yl (2,2-dimethyl-5-(3-methyl-4-(trifluoromethoxy)phenyl)-2,3-dihydro-1H-inden-1-yl)carbamate], 41 nM.

`CSc1cc(-c2ccc3c(c2)CC(C)(C)C3NC(=O)O[C@@H]2CN3CCC2CC3)cc(C(F)(F)F)c1` (stereo partly drawn) [Example 248, (S)-quinuclidin-3-yl (2,2-dimethyl-5-(3-(methylthio)-5-(trifluoromethyl)phenyl)-2,3-dihydro-1H-inden-1-yl)carbamate]: the IC50 was 14.9 nM.

Take `CC1(C)Cc2cc(-c3ccc(OC(F)(F)F)c(F)c3)ccc2C1NC(=O)O[C@@H]1CN2CCC1CC2` (stereo partly drawn) [Example 249, (S)-quinuclidin-3-yl (5-(3-fluoro-4-(trifluoromethoxy)phenyl)-2,2-dimethyl-2,3-dihydro-1H-inden-1-yl)carbamate]: the IC50 came to 37 nM. For the molecule `CCOc1cc(C(F)(F)F)ccc1-c1ccc2c(c1)CC(C)(C)C2NC(=O)O[C@@H]1CN2CCC1CC2` (stereo partly drawn) [Example 250, (S)-quinuclidin-3-yl (5-(2-ethoxy-4-(trifluoromethyl)phenyl)-2,2-dimethyl-2,3-dihydro-1H-inden-1-yl)carbamate], the IC50 worked out at 33 nM. The result for `COc1ccc(C(F)(F)F)cc1-c1ccc2c(c1)CC(C)(C)C2NC(=O)O[C@@H]1CN2CCC1CC2` (stereo partly drawn) [Example 251, (S)-quinuclidin-3-yl (5-(2-methoxy-5-(trifluoromethyl)phenyl)-2,2-dimethyl-2,3-dihydro-1H-inden-1-yl)carbamate] reads 7.2 nM. For the molecule `CC1(C)Cc2cc(-c3ccc(C(F)(F)F)cc3C(F)(F)F)ccc2C1NC(=O)O[C@@H]1CN2CCC1CC2` (stereo partly drawn) [Example 252, (S)-quinuclidin-3-yl (5-(2,4-bis(trifluoromethyl)phenyl)-2,2-dimethyl-2,3-dihydro-1H-inden-1-yl)carbamate], the IC50 turned out to be 43.9 nM. The result for `Cc1c(Cl)cccc1-c1ccc2c(c1)CC(C)(C)C2NC(=O)O[C@@H]1CN2CCC1CC2` (stereo partly drawn) [Example 253, (S)-quinuclidin-3-yl (5-(3-chloro-2-methylphenyl)-2,2-dimethyl-2,3-dihydro-1H-inden-1-yl)carbamate] reads 37.2 nM; that for `COc1cc(-c2ccc3c(c2)CC(C)(C)C3NC(=O)O[C@@H]2CN3CCC2CC3)ccc1C` (stereo partly drawn) [Example 254, (S)-quinuclidin-3-yl (5-(3-methoxy-4-methylphenyl)-2,2-dimethyl-2,3-dihydro-1H-inden-1-yl)carbamate], 45.2 nM. The result for `Cc1cc(-c2ccc3c(c2)CC(C)(C)C3NC(=O)O[C@@H]2CN3CCC2CC3)ccc1F` (stereo partly drawn) [Example 255, (S)-quinuclidin-3-yl (5-(4-fluoro-3-methylphenyl)-2,2-dimethyl-2,3-dihydro-1H-inden-1-yl)carbamate] reads 35.8 nM; that for `CCOc1ccc(F)cc1-c1ccc2c(c1)CC(C)(C)C2NC(=O)O[C@@H]1CN2CCC1CC2` (stereo partly drawn) [Example 256, (S)-quinuclidin-3-yl (5-(2-ethoxy-5-fluorophenyl)-2,2-dimethyl-2,3-dihydro-1H-inden-1-yl)carbamate], 24.6 nM; that for `CCCOc1cc(F)cc(-c2ccc3c(c2)CC(C)(C)C3NC(=O)O[C@@H]2CN3CCC2CC3)c1` (stereo partly drawn) [Example 257, (S)-quinuclidin-3-yl (5-(3-fluoro-5-propoxyphenyl)-2,2-dimethyl-2,3-dihydro-1H-inden-1-yl)carbamate], 27.4 nM. The result for `CC1(C)Cc2cc(-c3cc(C(F)(F)F)cc(C(F)(F)F)c3)ccc2C1NC(=O)O[C@@H]1CN2CCC1CC2` (stereo partly drawn) [Example 258, (S)-quinuclidin-3-yl (5-(3,5-bis(trifluoromethyl)phenyl)-2,2-dimethyl-2,3-dihydro-1H-inden-1-yl)carbamate] reads 17.4 nM; that for `Cc1ccc(-c2ccc3c(c2)CC(C)(C)C3NC(=O)O[C@@H]2CN3CCC2CC3)cc1Cl` (stereo partly drawn) [Example 259, (S)-quinuclidin-3-yl (5-(3-chloro-4-methylphenyl)-2,2-dimethyl-2,3-dihydro-1H-inden-1-yl)carbamate], 10.2 nM. `Cc1ccc(C)c(-c2ccc3c(c2)CC(C)(C)C3NC(=O)O[C@@H]2CN3CCC2CC3)c1` (stereo partly drawn) [Example 260, (S)-quinuclidin-3-yl (5-(2,5-dimethylphenyl)-2,2-dimethyl-2,3-dihydro-1H-inden-1-yl)carbamate]: the IC50 was determined as 14.4 nM.

For `CC1(C)Cc2cc(-c3ccc(F)c(Cl)c3)ccc2C1NC(=O)O[C@@H]1CN2CCC1CC2` (stereo partly drawn) [Example 261, (S)-quinuclidin-3-yl (5-(3-chloro-4-fluorophenyl)-2,2-dimethyl-2,3-dihydro-1H-inden-1-yl)carbamate], the IC50 stood at 51.5 nM. Consider `CCOc1ccc(-c2ccc3c(c2)CC(C)(C)C3NC(=O)O[C@@H]2CN3CCC2CC3)cn1` (stereo partly drawn) [Example 262, (S)-quinuclidin-3-yl (5-(6-ethoxypyridin-3-yl)-2,2-dimethyl-2,3-dihydro-1H-inden-1-yl)carbamate], for which it took 34.4 nM to reach half-maximal inhibition (IC50).

`CCOc1cc(-c2ccc3c(c2)CC(C)(C)C3NC(=O)O[C@@H]2CN3CCC2CC3)ccn1` (stereo partly drawn) [Example 263, (S)-quinuclidin-3-yl (5-(2-ethoxypyridin-4-yl)-2,2-dimethyl-2,3-dihydro-1H-inden-1-yl)carbamate] displayed an IC50 of 34.9 nM. The result for `CC(C)Oc1cc(-c2ccc3c(c2)CC(C)(C)C3NC(=O)O[C@@H]2CN3CCC2CC3)ccn1` (stereo partly drawn) [Example 264, (S)-quinuclidin-3-yl (5-(2-isopropoxypyridin-4-yl)-2,2-dimethyl-2,3-dihydro-1H-inden-1-yl)carbamate] reads 14.4 nM.
